Biological target: protein target (Homo sapiens (Human), UniProt Q06187)
Assay: Reversibility of binding (compound in solution before and after perturbation of target, HPLC-MS/MS)
Details: target in native (folded) state, target in excess of compound
Description: The following approach was developed to differentiate compounds that form irreversible covalent bond with their targets, such as non-cyano containing acrylamide compounds, from compound that form reversible covalent bond i.e., compounds and/or pharmaceutically acceptable salts of the present disclosure. […] The reactions were then treated with perturbations including both denaturation with 5 M guanidine hydrochloride and digestion with trypsin, disrupting proper folding of the target. […] The concentration of compound in solution was assessed both preceding and following perturbation using high performance liquid chromatography (HPLC) coupled to tandem mass spectrometry.

Sequence of protein target (Q06187 whole entry): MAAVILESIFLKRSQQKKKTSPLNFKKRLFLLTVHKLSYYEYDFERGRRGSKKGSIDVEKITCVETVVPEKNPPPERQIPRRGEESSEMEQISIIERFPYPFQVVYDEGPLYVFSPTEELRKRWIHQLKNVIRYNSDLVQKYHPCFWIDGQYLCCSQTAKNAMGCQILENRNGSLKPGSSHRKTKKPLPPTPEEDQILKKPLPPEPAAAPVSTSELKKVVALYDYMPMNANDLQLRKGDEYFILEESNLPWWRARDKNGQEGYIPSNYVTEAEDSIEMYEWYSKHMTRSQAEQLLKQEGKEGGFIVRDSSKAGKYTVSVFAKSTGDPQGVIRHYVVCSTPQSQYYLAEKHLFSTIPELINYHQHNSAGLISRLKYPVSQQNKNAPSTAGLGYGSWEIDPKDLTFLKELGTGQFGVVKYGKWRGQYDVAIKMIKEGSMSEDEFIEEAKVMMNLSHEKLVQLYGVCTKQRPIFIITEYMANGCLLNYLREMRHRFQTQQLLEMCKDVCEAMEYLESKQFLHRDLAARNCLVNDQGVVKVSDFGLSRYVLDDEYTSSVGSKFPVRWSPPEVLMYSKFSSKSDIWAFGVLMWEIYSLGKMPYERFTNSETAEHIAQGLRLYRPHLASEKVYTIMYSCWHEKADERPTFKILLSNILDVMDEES

`CN(C1COC1)C(C)(C)C=C(C#N)C(=O)N1CCC[C@H]1Cn1nc(-c2ccc(Oc3ccccc3)cc2F)c2c(N)ncnc21` [Example 10, 2-[(2S)-2-[[4-amino-3-(2-fluoro-4-phenoxy-phenyl)pyrazolo[3,4-d]pyrimidin-1-yl]methyl]pyrrolidine-1-carbonyl]-4-methyl-4-[methyl(oxetan-3-yl)amino]pent-2-enenitrile] was tested, and the “Compound in solution in the native state?” value was “no”.

From patent US11040980B2, “Substituted pyrazolo[3,4-d]pyrimidines as kinase inhibitors” (PRINCIPIA BIOPHARMA INC., priority 2012, dated 2021)
